Measurements reported in publication PMC9112550, “Optimization of the antimicrobial peptide Bac7 by deep mutational scanning” (BMC Biology, 2022).

Experiments:
[1] = test system: E. coli ATCC 25922; test: In vivo efficacy, murine septicemia model; settings: 30 mg kg^−1 IP once (1 h post-infection); 10 CD-1 mice; positive control
Experimental: CD-1 mice (7 weeks old, 27–28 g female) were used (Charles River, France). These animals were housed for a week of acclimation period before the experiment in a protected area in the ‘Centre de Zootechnie de l’Université de Bourgogne’ (Biosafety level 2 facility) and fed ad libitum according to the current recommendations by the European Institute of Health. Housing took place in rooms where a 12-h/12 h light/dark cycle is applied, the temperature ranges from 18 to 21°C and the relative humidity from 45 to 65%. The animal facility is authorized by the French authorities (Agreement N° C 21 464 04 EA). […]
For animal experiments, Bac7PS was synthesized at Genscript as acetate salt and with a purity of 92%. […] First, the maximum tolerated dose (MTD) for the peptide was determined by testing different peptide doses in 8 groups with 5 animals per group. The peptide solution was administered once by intraperitoneal (IP) injection with a volume of between 94 and 240 μl (depending on the weight of the animal and the dosage) and the animals were monitored for 2 h following the injection, then 6 to 8 h later, and then once or twice a day, depending on the clinical status, up to 5 days post-injection. […] As endpoint, the wellbeing and survival rate, on a twice daily based evaluation for up to 3 days, was monitored.

[2] = test system: bacteria; settings: cited from earlier work
Source text: One of the most intensively researched proline-rich AMPs is bactenecin-7 (Bac7). It is a 60 amino acid long linear peptide that was first isolated from bovine neutrophils. […] Measuring the antimicrobial activity of heavily mutated variants was valuable to determine the sequence-activity relationship of Bac7_1-23 because (i) the activity of specific amino acid res ... || Bac7PS excelled over Bac7_1-23 in terms of antimicrobial activity against clinical isolates including MDR bacteria and a decreased dependency on the SbmA transporter (Fig. 4a; Table 2). […] We mainly attribute the activity gain to the increased ability to penetrate membranes, which was accompanied by a slight increase in membrane damage at higher concentrations compared to Bac7_1-23 (Fig. 4b; Additional file 1 ...

[3] = test system: E. coli TOP10; test: Deep mutational scanning, site-saturation Bac7_1-23 library, intracellular self-screening with NGS; type: cell-based; settings: induction vs 4.5 h, n = 3, more negative = more antimicrobial
Experimental: A focused strategy was pursued to generate diversity at positions 5, 18, 19, and 20 in the Bac7_1-23 peptide. […] Degeneration was introduced by using the QuikChange technique, amplifying the pBAD plasmid containing the Bac7_1-23 gene using a mixture of 20 oligonucleotides (Additional file 1: Table S1) at a final concentration of 0.3 μM and Phusion® High-Fidelity PCR Master Mix in HF buffer. The amplification was performed using 20 cycles of 98°C for 10 s, 60°C for 15 s, and 72°C for 10 s. The PCR product was treated with the enzyme Dpn1 to remove the template plasmid and subsequently purified. The purified product was used to transform 20 μl of CloneCatcher™ Gold DH5G Electrocompetent E. coli (Genlantis, Burlington, USA) cells using electroporation.
To assess the antimicrobial activity of multiple peptides in parallel when expressed intracellularly in E. coli TOP10, previously prepared aliquots containing E. coli plasmid libraries created by either random mutagenesis or site-saturation mutagenesis were used. For both approaches, three aliquots containing approximately 500 million cells each of E. coli TOP10 harboring peptide-encoding DNA sequences on the pBAD plasmid were thawed and added to three 1-l baffled shake flasks containing 100 ml of LB medium + 100 μg ml^−1 carbenicillin. The cultures were grown for roughly 7 h at 37°C.

Molecule: O=C(O)c1cn(C2CC2)c2cc(N3CCNCC3)c(F)cc2c1=O [ciprofloxacin]
- survival [1]: survival of all mice

Molecule: Bac7_1-15: Bac7_1-15 (RRIRPRPPRLPRPRP; Bactenecin-7; UniProt P19661 131-145, looked up, fragment)
- antimicrobial activity [2]: loss of antimicrobial activity

Molecule: RRIRDRPPRLPRPRPRPIKDPRP [site-saturation library peptide ID 5521]
- lfcShrink4 (shrunken log2-fold change of abundance of peptide-encoding DNA) [3]: -4
